Source: patent US10138236B2, “Factor xia-inhibiting pyridobenzazepine and pyridobenzazocine derivatives” (BAYER PHARMA AKTIENGESELLSCHAFT, priority 2014, dated 2018)

Legend:
human plasma kallikrein = human plasma kallikrein (Homo sapiens (Human), UniProt P03952); assay: Determination of the plasma kallikrein activity; assay type: biochemical; details: plasma kallikrein from Kordia, substrate H-Pro-Phe-Arg-AMC, fluorescence
Protocol: a.5) Determination of the Plasma Kallikrein Activity
(§1) To determine the plasma kallikrein inhibition of the substances according to the invention, a biochemical test system is used which utilizes the reaction of a peptidic plasma kallikrein substrate to determine the enzymatic activity of human plasma kallikrein. Here, plasma kallikrein cleaves from the peptic plasma kallikrein substrate the C-terminal aminomethylcoumarin (AMC), the fluorescence of which is measured. The determinations are carried out in microtitre plates.
1 μl of the diluted substance solutions is placed into each of the wells of white microtitre plates from Greiner (384 wells). 20 μl of assay buffer (50 mM Tris/HCl pH 7.4; 100 mM sodium chloride solution; 5 mM of calcium chloride solution; 0.1% of bovine serum albumin) and 20 μl of plasma kallikrein from Kordia (0.6 nM in assay buffer) are then added successively. After 15 min of incubation, the enzyme reaction is started by addition of 20 μl of the substrate H-Pro-Phe-Arg-AMC dissolved in assay buffer (10 μM in assay buffer) from Bachem, the mixture is incubated at room temperature (22° C.) for 30 min and fluorescence is then measured (excitation: 360 nm, emission: 460 nm). The measured emissions of the test batches with test substance are compared to those of control batches without test substance (only dimethyl sulphoxide instead of test substance in dimethyl sulphoxide), and IC50 values are calculated from the concentration/activity relationships.

human factor XIa = human factor XIa (Homo sapiens (Human), UniProt P03951); assay: Measurement of FXIa inhibition; assay type: biochemical; details: factor XIa from Kordia, substrate Boc-Glu(OBzl)-Ala-Arg-AMC, fluorescence
human factor XIa, sequence (P03951 388-625): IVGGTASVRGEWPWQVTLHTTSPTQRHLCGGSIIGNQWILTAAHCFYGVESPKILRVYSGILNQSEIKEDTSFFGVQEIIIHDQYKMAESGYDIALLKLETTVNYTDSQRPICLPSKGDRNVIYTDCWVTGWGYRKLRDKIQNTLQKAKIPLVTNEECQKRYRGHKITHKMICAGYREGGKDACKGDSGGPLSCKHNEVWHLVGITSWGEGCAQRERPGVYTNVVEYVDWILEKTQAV
human factor XIa, sequence (P03951 19-387 partner): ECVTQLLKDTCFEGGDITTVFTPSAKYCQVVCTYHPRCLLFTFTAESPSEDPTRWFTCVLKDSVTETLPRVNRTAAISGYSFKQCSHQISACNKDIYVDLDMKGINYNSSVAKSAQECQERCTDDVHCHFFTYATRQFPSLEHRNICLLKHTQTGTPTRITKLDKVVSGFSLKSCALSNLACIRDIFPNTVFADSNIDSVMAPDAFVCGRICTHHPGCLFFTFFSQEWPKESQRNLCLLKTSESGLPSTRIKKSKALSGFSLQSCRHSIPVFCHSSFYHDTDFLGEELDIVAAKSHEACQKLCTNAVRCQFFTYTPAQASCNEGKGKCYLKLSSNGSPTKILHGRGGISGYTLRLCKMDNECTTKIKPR
Protocol: a.1) Measurement of FXIa Inhibition
as §1, with “The factor XIa” for “To determine the plasma kallikrein”, “invention is determined using” for “invention,”, “system” for “system is used”, “factor XIa” for “plasma kallikrein”, “factor XIa.” for “plasma kallikrein.”
1 μl of the diluted substance solutions is placed into each of the wells of white microtitre plates from Greiner (384 wells). […] After 15 min of incubation, the enzyme reaction is started by addition of 20 μl of the factor XIa substrate Boc-Glu(OBzl)-Ala-Arg-AMC dissolved in assay buffer (10 μM in assay buffer) from Bachem, the mixture is incubated at room temperature (22° C.) for 30 min and fluorescence is then measured (excitation: 360 nm, emission: 460 nm). The measured emissions of the test batches with test substance are compared to those of control batches without test substance (only dimethyl sulphoxide instead of test substance in dimethyl sulphoxide), and IC50 values are calculated from the concentration/activity relationships.

human plasma kallikrein, sequence (P03952 391-638): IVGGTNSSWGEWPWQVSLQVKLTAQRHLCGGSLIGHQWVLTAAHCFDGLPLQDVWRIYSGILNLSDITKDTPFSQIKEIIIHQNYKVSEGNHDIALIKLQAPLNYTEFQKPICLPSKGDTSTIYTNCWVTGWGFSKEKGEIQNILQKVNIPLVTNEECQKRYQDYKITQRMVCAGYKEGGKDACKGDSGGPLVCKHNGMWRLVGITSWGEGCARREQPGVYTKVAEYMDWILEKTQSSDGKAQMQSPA
human plasma kallikrein, sequence (P03952 20-390 partner): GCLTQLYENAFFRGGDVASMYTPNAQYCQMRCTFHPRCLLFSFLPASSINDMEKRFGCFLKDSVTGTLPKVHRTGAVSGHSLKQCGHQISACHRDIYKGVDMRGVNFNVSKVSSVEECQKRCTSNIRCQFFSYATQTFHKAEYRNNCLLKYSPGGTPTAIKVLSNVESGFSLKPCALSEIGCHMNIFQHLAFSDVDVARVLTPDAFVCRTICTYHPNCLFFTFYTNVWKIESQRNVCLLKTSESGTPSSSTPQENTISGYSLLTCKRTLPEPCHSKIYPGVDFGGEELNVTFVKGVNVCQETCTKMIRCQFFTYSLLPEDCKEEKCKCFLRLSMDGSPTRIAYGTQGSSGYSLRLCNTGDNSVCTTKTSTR

| SMILES | IC50 (human plasma kallikrein) [nM] | IC50 (human factor XIa) [nM] |
| --- | --- | --- |
| CCC(C(=O)Nc1ccc(-c2noc(=O)[nH]2)cc1)n1cc2c(cc1=O)-c1cc(Cl)ccc1CCNC2=O (stereo not shown) [Example 7, 2-(11-Chloro-2,5-dioxo-5,6,7,8-tetrahydropyrido[3,4-e][3]benzazocin-3(2H)-yl)-N-[4-(5-oxo-4,5-dihydro-1,2,4-oxadiazol-3-yl)phenyl]butanamide] | 3300 | 44 |
| COCCC(C(=O)Nc1ccc(C(=O)O)cc1)n1cc2c(cc1=O)-c1cc(Cl)ccc1CC1(CC1)NC2=O (stereo not shown) [Example 12, 4-{[2-(11′-Chloro-2′,5′-dioxo-2′,5′,6′,8′-tetrahydro-3′H-spiro[cyclopropane-1,7′-pyrido[3,4-e][3]benzazocine]-3′-yl)-4-methoxybutanoyl]amino}benzoic acid] | 390 | 1.9 |
| CCC(C(=O)Nc1ccc(-c2noc(=O)[nH]2)cc1)n1cc2c(cc1=O)-c1cc(Cl)ccc1CNC2=O (stereo not shown) [Example 2, 2-(10-Chloro-2,5-dioxo-2,5,6,7-tetrahydro-3H-pyrido[3,4-d][2]benzazepin-3-yl)-N-[4-(5-oxo-4,5-dihydro-1,2,4-oxadiazol-3-yl)phenyl]butanamide] | 4900 | 280 |
| COCCC(C(=O)Nc1ccn2nccc2c1)n1cc2c(cc1=O)-c1cc(Cl)ccc1CC1(CC1)NC2=O (stereo not shown) [Example 16, 2-(11′-Chloro-2′,5′-dioxo-2′,5′,6′,8′-tetrahydro-3′H-spiro[cyclopropane-1,7′-pyrido[3,4-e][3]benzazocine]-3′-yl)-4-methoxy-N-(pyrazolo[1,5-a]pyridin-5-yl)butanamide] | 210 | 11 |
| CCC(C(=O)Nc1ccc(C(=O)O)cc1)n1cc2c(cc1=O)-c1cc(Cl)ccc1CCNC2=O (stereo not shown) [Example 6, 4-{[2-(11-Chloro-2,5-dioxo-5,6,7,8-tetrahydropyrido[3,4-e][3]benzazocin-3(2H)-yl)butanoyl]amino}benzoic acid] | 1900 | 28 |
| O=C(Cn1cc2c(cc1=O)-c1cc(Cl)ccc1CCNC2=O)Nc1ccc(C(=O)O)cc1 [Example 4, 4-{[(11-Chloro-2,5-dioxo-5,6,7,8-tetrahydropyrido[3,4-e][3]benzazocin-3(2H)-yl)acetyl]amino}benzoic acid] | 18000 | 720 |
| CCC(C(=O)Nc1ccc(-c2noc(=O)[nH]2)cc1)n1cc2c(cc1=O)-c1cc(Cl)ccc1CC1(CC1)NC2=O (stereo not shown) [Example 11, 2-(11′-Chloro-2′,5′-dioxo-2′,5′,6′,8′-tetrahydro-3′H-spiro[cyclopropane-1,7′-pyrido[3,4-e][3]benzazocine]-3′-yl)-N-[4-(5-oxo-4,5-dihydro-1,2,4-oxadiazol-3-yl)phenyl]butanamide] | 1700 | 16 |
| COCCC(C(=O)Nc1ccc(C(N)=O)c(F)c1)n1cc2c(cc1=O)-c1cc(Cl)ccc1CC1(CC1)NC2=O (stereo not shown) [Example 13, 4-{[2-(11′-Chloro-2′,5′-dioxo-2′,5′,6′,8′-tetrahydro-3′H-spiro[cyclopropane-1,7′-pyrido[3,4-e][3]benzazocine]-3′-yl)-4-methoxybutanoyl]amino}-2-fluorobenzamide] | 780 | 27 |
| CCC(C(=O)Nc1ccc(C(=O)O)cc1)n1cc2c(cc1=O)-c1cc(Cl)ccc1C1(CC1)NC2=O (stereo not shown) [Example 3, 4-{[2-(10′-Chloro-2′,5′-dioxo-5′,6′-dihydrospiro[cyclopropane-1,7′-pyrido[3,4-d][2]benzazepine]-3′(2′H)-yl)butanoyl]amino}benzoic acid] | > 50000 | 180 |
| CC(C)CC(C(=O)Nc1ccc(-c2noc(=O)[nH]2)cc1)n1cc2c(cc1=O)-c1cc(Cl)ccc1CCNC2=O (stereo not shown) [Example 9, 2-(11-Chloro-2,5-dioxo-5,6,7,8-tetrahydropyrido[3,4-e][3]benzazocin-3(2H)-yl)-4-methyl-N-[4-(5-oxo-4,5-dihydro-1,2,4-oxadiazol-3-yl)phenyl]pentanamide] | 3800 | 140 |

Continued, values first:

| IC50 (human plasma kallikrein) [nM] | IC50 (human factor XIa) [nM] | SMILES |
| --- | --- | --- |
| 42 | 2.8 | COCCC(C(=O)Nc1ccc2nn(C)cc2c1)n1cc2c(cc1=O)-c1cc(Cl)ccc1CC(CF)NC2=O (stereo not shown) [Example 31, 2-[11-Chloro-7-(fluoromethyl)-2,5-dioxo-5,6,7,8-tetrahydropyrido[3,4-e][3]benzazocin-3(2H)-yl]-4-methoxy-N-(2-methyl-2H-indazol-5-yl)butanamide] |
| 800 | 35 | COCCC(C(=O)Nc1csc(C(=O)O)c1)n1cc2c(cc1=O)-c1cc(Cl)ccc1CC1(CC1)NC2=O (stereo not shown) [Example 24, 4-{[2-(11′-Chloro-2′,5′-dioxo-2′,5′,6′,8′-tetrahydro-3′H-spiro[cyclopropane-1,7′-pyrido[3,4-e][3]benzazocine]-3′-yl)-4-methoxybutanoyl]amino}thiophene-2-carboxylic acid] |
| 740 | 34 | CO[C@H]1CC[C@H](CC(C(=O)Nc2ccc(C(N)=O)c(F)c2)n2cc3c(cc2=O)-c2cc(Cl)ccc2CC2(CC2)NC3=O)CC1 (stereo partly drawn) [Example 26, 4-{[2-(11′-Chloro-2′,5′-dioxo-2′,5′,6′,8′-tetrahydro-3′H-spiro[cyclopropane-1,7′-pyrido[3,4-e][3]benzazocine]-3′-yl)-3-(trans-4-methoxycyclohexyl)propanoyl]amino}-2-fluorobenzamide] |
| 55 | 1.8 | O=C(O)c1ccc(NC(=O)C(Cc2ccccc2)n2cc3c(cc2=O)-c2cc(Cl)ccc2CC2(CC2)NC3=O)cc1 (stereo not shown) [Example 28, 4-{[2-(11′-Chloro-2′,5′-dioxo-2′,5′,6′,8′-tetrahydro-3′H-spiro[cyclopropane-1,7′-pyrido[3,4-e][3]benzazocine]-3′-yl)-3-phenylpropanoyl]amino}benzoic acid] |
| 330 | 21 | COCCC(C(=O)Nc1ccc2[nH]ncc2c1)n1cc2c(cc1=O)-c1cc(Cl)ccc1CC1(CC1)NC2=O (stereo not shown) [Example 18, 2-(11′-Chloro-2′,5′-dioxo-2′,5′,6′,8′-tetrahydro-3′H-spiro[cyclopropane-1,7′-pyrido[3,4-e][3]benzazocine]-3′-yl)-N-(1H-indazol-5-yl)-4-methoxybutanamide] |
| 45 | 4.5 | Cn1cc2cc(NC(=O)C(Cc3ccccc3)n3cc4c(cc3=O)-c3cc(Cl)ccc3CC3(CC3)NC4=O)ccc2n1 (stereo not shown) [Example 30, 2-(11′-Chloro-2′,5′-dioxo-2′,5′,6′,8′-tetrahydro-3′H-spiro[cyclopropane-1,7′-pyrido[3,4-e][3]benzazocine]-3′-yl)-N-(2-methyl-2H-indazol-5-yl)-3-phenylpropanamide] |
| 3900 | 100 | COCCC(C(=O)Nc1cc(C(=O)O)cs1)n1cc2c(cc1=O)-c1cc(Cl)ccc1CC1(CC1)NC2=O (stereo not shown) [Example 23, 5-{[2-(11′-Chloro-2′,5′-dioxo-2′,5′,6′,8′-tetrahydro-3′H-spiro[cyclopropane-1,7′-pyrido[3,4-e][3]benzazocine]-3′-yl)-4-methoxybutanoyl]amino}thiophene-3-carboxylic acid] |
| 42 | 4.5 | O=C1NC2(CC2)Cc2ccc(Cl)cc2-c2cc(=O)n(C(Cc3ccccc3)C(=O)Nc3ccc4[nH]c(=O)[nH]c4c3)cc21 (stereo not shown) [Example 29, 2-(11′-Chloro-2′,5′-dioxo-2′,5′,6′,8′-tetrahydro-3′H-spiro[cyclopropane-1,7′-pyrido[3,4-e][3]benzazocine]-3′-yl)-N-(2-oxo-2,3-dihydro-1H-benzimidazol-5-yl)-3-phenylpropanamide] |
| 1200 | 44 | COCCC(C(=O)Nc1ccc2nccn2c1)n1cc2c(cc1=O)-c1cc(Cl)ccc1CC1(CC1)NC2=O (stereo not shown) [Example 17, 2-(11′-Chloro-2′,5′-dioxo-2′,5′,6′,8′-tetrahydro-3′H-spiro[cyclopropane-1,7′-pyrido[3,4-e][3]benzazocine]-3′-yl)-N-(imidazo[1,2-a]pyridin-6-yl)-4-methoxybutanamide] |
| 340 | 4 | COCCC(C(=O)Nc1ccc(C(=O)O)s1)n1cc2c(cc1=O)-c1cc(Cl)ccc1CC1(CC1)NC2=O (stereo not shown) [Example 22, 5-{[2-(11′-Chloro-2′,5′-dioxo-2′,5′,6′,8′-tetrahydro-3′H-spiro[cyclopropane-1,7′-pyrido[3,4-e][3]benzazocine]-3′-yl)-4-methoxybutanoyl]amino}thiophene-2-carboxylic acid] |
